Results taken from ChEMBL document CHEMBL1158707, “Botryane metabolites from the fungus Geniculosporium sp. isolated from the marine red alga Polysiphonia” (2005).

Experiments:
Assay type in all cases: functional
[1] = tested on: [Chlorella] fusca; experiment: Antimicrobial activity against Chlorella fusca at 1 mg/ml; conditions: Scenedesmus fuscus; read-out: IZ
[2] = tested on: [Chlorella] fusca; experiment: Antimicrobial activity against Chlorella fusca at 5 mg/ml; conditions: Scenedesmus fuscus; read-out: IZ
[3] = tested on: Priestia megaterium; experiment: Antimicrobial activity against Bacillus megaterium 1mg/ml
[4] = tested on: Priestia megaterium; experiment: Antimicrobial activity against Bacillus megaterium 5 mg/ml
[5] = tested on: Microbotryum violaceum; experiment: Antimicrobial activity against Microbotryum violaceum 1 mg/ml
[6] = tested on: Microbotryum violaceum; experiment: Antimicrobial activity against Microbotryum violaceum 5 mg/ml
[7] = tested on: [Chlorella] fusca; experiment: Antimicrobial activity against Chlorella fusca at 2 mg/ml; conditions: Scenedesmus fuscus; read-out: IZ
[8] = tested on: [Chlorella] fusca; experiment: Antimicrobial activity against Chlorella fusca at 8 mg/ml; conditions: Scenedesmus fuscus; read-out: IZ

Compound	zone of inhibition at 1000 µg/mL [1] [mm]	zone of inhibition at 5000 µg/mL [2] [mm]	inhibition zone (IZ) [3] [mm]	inhibition zone (IZ) [4] [mm]	inhibition zone (IZ) [5] [mm]	inhibition zone (IZ) [6] [mm]	zone of inhibition at 2000 µg/mL [7] [mm]	zone of inhibition at 8000 µg/mL [8] [mm]
Cc1ccc2c3c1[C@@H](O)OC[C@@]3(C)[C@H](O)C2(C)C	0	12	0	6	0	6	–	–
Cc1ccc2c3c1COC[C@@]3(C)[C@H](O)C2(C)C	–	–	–	–	–	–	5	5
CO[C@H]1OC[C@@]2(C)[C@H](OC(C)=O)C(C)(C)[C@@H]3[C@@H](OC(C)=O)C[C@@H](C)[C@H]1[C@@]32O	0	0	0	0	0	0	–	–
CO[C@H]1OC[C@]2(C)c3c(ccc(C)c31)C(C)(C)[C@H]2O	0	6	0	6	0	8	–	–
CCO[C@H]1OC[C@]2(C)c3c(ccc(C)c31)C(C)(C)[C@H]2O	–	–	–	–	–	–	5	6
C[C@@H]1CC=C2[C@@H]3[C@H]1CC(O)[C@@]3(C=O)CC2(C)C (some centres not stated)	0	10	0	0	0	0	–	–
C[C@@H]1C[C@H](O)[C@H]2C(C)(C)C[C@]3(C)CO[C@H](O)[C@@H]1[C@@]23O	0	0	0	0	0	0	–	–
Cc1ccc2c3c1C(=O)OC[C@@]3(C)[C@H](O)C2(C)C	0	8	0	6	0	0	–	–
C[C@@H]1CCC2=C3C1=COC[C@@]3(C)[C@H](O)C2(C)C	0	6	0	0	0	5	–	–
C[C@@H]1C[C@H](O)C2=C3C1=COC[C@@]3(C)[C@H](O)C2(C)C	0	7	0	0	0	5	–	–
CO[C@H]1OC[C@@]2(C)[C@H](O)C(C)(C)[C@@H]3[C@@H](O)C[C@@H](C)[C@H]1[C@@]32O	0	0	0	0	0	0	–	–
C[C@@H]1C[C@H](O)[C@@H]2C(=C1C=O)[C@@](C)(CO)[C@H](O)C2(C)C	–	–	–	–	–	–	0	6
C[C@@H]1C[C@H](O)[C@@H]2C3=C1[C@@H](O)OC[C@@]3(C)[C@H](O)C2(C)C	–	–	–	–	–	–	0	7
